The values that follow come from patent publication US20210255193A1, “LYSINE REACTIVE PROBES AND USES THEREOF” (The Scripps Research Institute, priority 2017, published 2021).

The subject of experiment [1] is lysines in the human breast cancer cell MDA-MB-231 proteome. As to the kind of experiment: competitive isoTOP-ABPP, proteome-wide fragment reactivity. Particulars: for proteome-wide reactivity: fragments 50-100 μM; for lysines reacted that showed negligible cross-reactivity with activated esters: human cell proteomes. It counts as binding. As to the method:
In vitro covalent fragment treatment for isoTOP-ABPP. All compounds were made up as solutions in DMSO (100×) and were used at a final concentration of 50 μM for activated esters and 100 μM for guanidinylating agents. For each profiling sample, 0.5 ml of lysate was treated with 5 μl of the 100× compound stock solution or 5 μl of DMSO. Samples were treated with activated esters for
STP-alkyne labeling and click chemistry. For concentration-dependent reactivity measurements by isoTOP-ABPP, 0.5 ml proteome aliquots were treated at ambient temperature with 1 mM STP-alkyne 1 (5 μl of 100 mM stock in DMSO) and 0.1 mM STP alkyne 1 (5 μl of 10 mM stock in DMSO), respectively. For competitive isoTOP-ABPP, after in vitro fragment treatment (detailed above), the samples were labeled for 1 h at ambient temperature with 0.1 mM STP-alkyne 1 (5 μl of 10 mM stock in DMSO). Samples were conjugated by copper-mediated azide-alkyne cycloaddition (CuAAC) to either the light (1 mM STP-alkyne or fragment treated) or heavy (0.1 mM STP-alkyne or DMSO treated) TEV tags (10 μl of 5 mM stocks in DMSO, final concentration=100 μM) using tris(2-carboxyethyl)phosphine hydrochloride
R value calculation and processing. The ratios of light and heavy MS1 peaks for each unique peptide were quantified with a CIMAGE software using default parameters (3 MS1 acquisitions per peak and signal to noise threshold set to 2.5). For reactivity measurements by isoTOP-ABPP, the R value was calculated from the ratio of MS1 peak areas, comparing the 1 mM STP alkyne sample (light TEV tag) with the 0.1 mM STP alkyne sample (heavy TEV tag). For competitive isoTOP-ABPP, the R value was calculated from the ratio of MS1 peak areas, comparing the DMSO treated sample (heavy TEV tag) with the compound treated sample (light TEV tag). […] Ratios for unique peptide entries are calculated for each experiment; overlapping peptides with the same modified lysine (for example, different charge states, MudPIT chromatographic steps or tryptic termini) are grouped together and the median ratio is reported as the final ratio (R). The peptide ratios reported by CIMAGE were further filtered to ensure the removal or correction of low-quality ratios in each individual data set. The quality filters applied were the following: removal of half tryptic peptides; for ratios with high standard deviations from the median (90% of the median or above) the lowest ratio was taken instead of the median; removal of peptides with R=20 and only a single MS2 event triggered during the elution of the parent ion; manual annotation of all the peptides with ratios of 20, removing any peptides with low quality elution profiles that remained after the previous curation steps (only done for competitive isoTOP-ABPP).
Cross-data processing for fragment screening. For compound treated samples, biological replicates of the same condition were averaged, if the standard deviation was below 60% of the mean; otherwise, for lysines with at least one R value <4 for a particular compound, the lowest value of the ratio set was taken. For lysines, where all R values for a particular compound were ≥4, the average was reported. For peptides containing several possible modified lysines, the lysine with the highest number of quantification events was used for analysis and the remaining, redundant peptides were reported as alternative modification sites. Peptides included in the aggregate dataset (those used for further bioinformatics and statistical analyses) were required to have been quantified in 2 experiments for competitive isoTOP-ABPP. Lysines were categorized as liganded, if they had at least one ratio R≥4 (hit fragments). For liganded lysines with R=20 for all liganding events, lysines were required to have been quantified with R=20 in two separate experiments and were further required to have been quantified with R<20 in one additional experiment. […]

For experiment [2], the target named is T1, TARDBP TAR DNA-binding protein 43 (Homo sapiens, UniProt Q13148).
T1 construct: isoTOP-ABPP experiments performed in cell lysates (in vitro); endogenous in cells; host or cells: soluble proteome of human cancer cell lines (MDA-MB-231, Ramos, Jurkat)
T1 sequence (Q13148 whole entry): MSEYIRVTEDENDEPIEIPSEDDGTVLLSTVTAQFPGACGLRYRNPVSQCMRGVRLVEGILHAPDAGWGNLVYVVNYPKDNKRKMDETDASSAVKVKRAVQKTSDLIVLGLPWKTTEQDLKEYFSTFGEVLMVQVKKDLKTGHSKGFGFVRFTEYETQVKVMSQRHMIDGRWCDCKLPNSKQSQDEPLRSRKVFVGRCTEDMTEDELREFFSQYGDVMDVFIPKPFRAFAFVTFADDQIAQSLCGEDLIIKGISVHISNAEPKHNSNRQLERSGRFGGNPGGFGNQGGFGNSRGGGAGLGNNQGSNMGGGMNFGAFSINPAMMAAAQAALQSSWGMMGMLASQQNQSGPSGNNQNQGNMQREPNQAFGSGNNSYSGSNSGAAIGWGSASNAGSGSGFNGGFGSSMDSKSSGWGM
As to the kind of experiment: competitive isoTOP-ABPP. As to conditions: for R value (DMSO/fragment) for probe 1 labeling: Q13148_K114; for R value (DMSO/fragment) for probe 1 labeling / isoTOP-ABPP reactivity ratio at lysine Q13148_K114 / isoTOP-ABPP ratio (R) at liganded lysine Q13148_K114: 50 uM, in vitro; for R value (DMSO/fragment) for probe 1 labeling / isoTOP-ABPP reactivity ratio at lysine Q13148_K114: 231 sol; for isoTOP-ABPP ratio (R) at liganded lysine Q13148_K114: sol, 231. The procedure, abridged: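 Lysate + fragment (50 μM activated ester / 100 μM guanidinylating agent) or DMSO → 0.1 mM STP-alkyne, 1 h, RT → CuAAC to TEV tags (compound light, DMSO heavy) → LC-MS. R = heavy/light MS1 area; liganded lysine if R≥4.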

Experiment [3] concerns the target T2, TTR (Homo sapiens, UniProt P02766).
T2 construct: made in house; host or cells: E. coli
As to the kind of experiment: direct labeling of recombinantly expressed proteins by gel-based ABPP (WT vs lysine mutant). It counts as binding. Particulars: TTR K35, KA mutant; 1 μM TTR in MDA-MB-231 lysate. The text has this: Subcloning and mutagenesis. Unless noted below, genes were amplified from cDNA prepared from low passage HEK 293T cells using the Ribozol RNA extraction reagent (Amresco) and the iScript Reverse Transcription Supermix kit (Bio-Rad). For the following proteins cDNA clones were used for amplification instead: PFKP (5180268, Dharmacon), HK1 (BC008730, transomic), SIN3A (BC137098, transomic), G6PD (BC000337, transomic) and TGIF1 (BC031268, transomic). Mouse CARM1 in pFLAG-CMV-6c was a kind gift from the Mowen lab (TSRI). NUDT2 was obtained as synthesized gene (IDT). DNA was amplified with custom forward and reverse primers using phusion polymerase (NEB, M0530S), digested with the indicated restriction enzyme and ligated into pFLAG-CMV-6c or pRK5 with the appropriate affinity tag. Lysine mutants were generated using QuikChange site-directed mutagenesis using Phusion® High-Fidelity DNA Polymerase and primers containing the desired mutations and their respective complements. The cloning of TTR and its K35A mutant has been described in Choi et al., “Chemoselective small molecules that covalently modify one lysine in a non-enzyme protein in plasma,” Nat. Chem. Biol. 6, 133-139 (2010). TTR was expressed in E. coli and purified as described. For gel-based experiments 1 μM TTR was added into 1 mg ml^−1 soluble MDA-MB-231 lysate.
Direct labeling of recombinantly expressed proteins by gel-based ABPP. 50 μL of soluble HEK 293T proteome (1 mg ml^−1) expressing the respective protein (WT or KR mutant) or transfected with an empty vector were treated with 10 μM of the indicated probe for 1 h at room temperature. The samples were analyzed as described in the previous section. For quantification of relative labeling of the different protein variants, the intensity of labeling was determined by quantifying the integrated optical intensity of the bands using ImageLab 5.2.1 software (BioRad).

Each structure is given as a SMILES string.

As to `O=C(Oc1c(F)c(F)c(F)c(F)c1F)C(c1ccccc1)c1ccccc1` [fragment 20, Pentafluorophenyl 2,2-diphenylacetate], the proteome-wide reactivity entry in experiment [1] is reported as “limited reactivity across the proteome”. In the case of `O=C(Oc1c(F)c(F)c(F)c(F)c1F)c1cc(C(F)(F)F)cc(C(F)(F)F)c1` [fragment 21, Pentafluorophenyl 3,5-bis(trifluoromethyl)benzoate], the proteome-wide reactivity entry in experiment [1] is given as “low proteome-wide reactivity”. For the same molecule, the “R value (DMSO/fragment) for probe 1 labeling” value in experiment [2] is 0.9.

For the molecule `Cn1cc(CC(=O)Oc2c(F)c(F)c(F)c(F)c2F)c2ccccc21` [fragment 22, Pentafluorophenyl 2-(1-methyl-1H-indol-3-yl)acetate], in experiment [2], the “R value (DMSO/fragment) for probe 1 labeling” value is given as 0.8. With `O=C(Oc1c(F)c(F)c(F)c(F)c1F)C1CCN(C(=O)OCc2ccccc2)CC1` [fragment 24, 1-Benzyl 4-(pentafluorophenyl) piperidine-1,4-dicarboxylate], the “isoTOP-ABPP reactivity ratio at lysine Q13148_K114” value in experiment [2] amounted to 1.0.

Turning to `O=C(CCc1cn(-c2ccccc2)nc1-c1ccccc1)Oc1ccc([N+](=O)[O-])cc1[N+](=O)[O-]` [fragment 29, 2,4-Dinitrophenyl 3-(1,3-diphenyl-1H-pyrazol-4-yl)propanoate], the proteome-wide reactivity entry in experiment [1] was “much greater proteome-wide reactivity”. The “isoTOP-ABPP reactivity ratio at lysine Q13148_K114” value in experiment [2] was 1.1. As for `O=C(Oc1ccc([N+](=O)[O-])cc1[N+](=O)[O-])C(c1ccccc1)c1ccccc1` [fragment 30, 2,4-Dinitrophenyl 2,2-diphenylacetate], in experiment [1], the proteome-wide reactivity entry was “much greater proteome-wide reactivity”. For `O=C(CCc1coc2cc(F)ccc2c1=O)Oc1ccc([N+](=O)[O-])cc1[N+](=O)[O-]` [fragment 36, 2,4-Dinitrophenyl 3-(7-fluoro-4-oxo-4H-chromen-3-yl)propanoate], the “isoTOP-ABPP ratio (R) at liganded lysine Q13148_K114” value (from here on “isoTOP-ABPP ratio (R)”) in experiment [2] is 1.2. In the case of `O=C(Oc1ccc([N+](=O)[O-])cc1[N+](=O)[O-])c1ccc(-c2ccccc2)cc1` [fragment 37, 2,4-Dinitrophenyl [1,1′-biphenyl]-4-carboxylate], in experiment [2], the “isoTOP-ABPP ratio (R)” value was 1.3.

Take `O=C(Oc1ccc([N+](=O)[O-])cc1[N+](=O)[O-])c1ccc(Oc2ccccc2)cc1` [fragment 39, 2,4-Dinitrophenyl 4-phenoxybenzoate]: the “isoTOP-ABPP ratio (R)” value in experiment [2] is 0.9. Turning to `N#Cc1ccc(C(=O)Oc2ccc([N+](=O)[O-])cc2[N+](=O)[O-])cc1` [fragment 44, 2,4-Dinitrophenyl 4-cyanobenzoate], the “isoTOP-ABPP ratio, lysine Q13148_K114” value in experiment [2] (50 uM_231_sol_in vitro) is 20.0.

As for `O=C(CCc1ccc2c(c1)OCO2)Oc1ccc([N+](=O)[O-])cc1[N+](=O)[O-]` [fragment 45, 2,4-Dinitrophenyl 3-(benzo[d][1,3]dioxol-5-yl)propanoate], the “isoTOP-ABPP ratio, lysine Q13148_K114” value in experiment [2] (50 uM_231_sol_in vitro) is 20.0. As to `COC(=O)NC(=NC(=O)OCC1c2ccccc2-c2ccccc21)n1cccn1` [fragment 49, N-Methoxycarbonyl-N′-9-fluorenylmethoxycarbonyl-pyrazole-1-carboxamidine], the “lysines reacted that showed negligible cross-reactivity with activated esters” value in experiment [1] amounted to 15. Moreover, the “isoTOP-ABPP ratio, lysine Q13148_K114” value in experiment [2] (100 uM_231_sol_in vitro) was 20.0. Regarding `CC(C)(C)OC(=O)N=C(NC(=O)OC(C)(C)C)n1cccn1` [fragment 50, reference compound], in experiment [1], the “lysines reacted that showed negligible cross-reactivity with activated esters” value is 15. For the same molecule, the “isoTOP-ABPP ratio, lysine Q13148_K114” value in experiment [2] (100 uM_231_sol_in vitro) came out at 1.2. Regarding `NC(=O)c1cc(C(F)(F)F)cc(C(F)(F)F)c1` [fragment 51, reference compound], in experiment [1] (competition with probe 1 (100 μM)), the lysine reactivity entry is listed as “No lysine reactivity was observed”. In the case of `C#CCCC(=O)Oc1c(F)c(F)c(S(=O)(=O)[O-])c(F)c1F.[Na+]` [probe 1, reference compound], the “labeling of WT vs mutant protein by probe” value in experiment [3] is on record as “HD (the WT labeled more than the mutant (>4x difference quantified))”. Consider `C#CCCC(=O)Oc1c(F)c(F)c(F)c(F)c1F` [probe 6, Pentafluorophenyl 4-pentynoate], for which the “labeling of WT vs mutant protein by probe” value in experiment [3] is “HD (the WT labeled more than the mutant (>4x difference quantified))”.

Take `C#Cc1ccc(C(=O)Oc2ccccc2[N+](=O)[O-])cc1` [probe 10, 2-Nitrophenyl 4-ethynylbenzoate]: the “labeling of WT vs mutant protein by probe” value in experiment [3] is “HD (the WT labeled more than the mutant (>4x difference quantified))”.

In the case of `C#Cc1ccc(C(=O)Oc2c(F)c(F)cc(F)c2F)cc1` [probe 12, 2,3,5,6-Tetrafluorophenyl 4-ethynylbenzoate], the “labeling of WT vs mutant protein by probe” value in experiment [3] is “HD (the WT labeled more than the mutant (>4x difference quantified))”. For the molecule `C#Cc1ccc(C(=O)Oc2c(F)c(F)c(F)c(F)c2F)cc1` [probe 13, Pentafluorophenyl 4-ethynylbenzoate], the “labeling of WT vs mutant protein by probe” value in experiment [3] is recorded as “HD (the WT labeled more than the mutant (>4x difference quantified))”.

With `Cc1cc(C)n2c1C=C1C=CC(CCC(=O)Oc3c(F)c(F)c(S(=O)(=O)[O-])c(F)c3F)=[N+]1[B-]2(F)F.[Na+]` [probe 18, reference compound], in experiment [3], the “labeling of WT vs mutant protein by probe” value is listed as “HD (the WT labeled more than the mutant (>4x difference quantified))”.
